Tests used:
[1] = test system: intimal thickening induced at the balloon-intervented and injured site of blood vessel; assay: Suppressive effect of PDT treatment on intimal thickening in rabbit model with arterial injury, image analysis of neo-intima and tunica media areas (Example 2); format: in vivo; settings: 2.5 mg/kg i.v., laser 664 nm 3 hours after administration, two weeks after PDT; for Inhibition rate (%): versus untreated group
Method: Mono-L-aspartylchlorin e6 tetrasodium salt was intravenously administered at a dose of 2.5 mg/kg to three rabbits each weighing about 4 kg. […] The neo-intima (9) had newly been produced from the inner side of the tunica media (8) due to the injury as induced by the balloon-intervention. At the end of three hours after the administration of mono-L-aspartylchlorin e6 tetrasodium salt, a device comprising an optical fiber for the irradiation of laser was inserted in the blood vessel of rabbit having the intimal thickening, to arrive at the balloon-injured site of the blood vessel. In order to estimate in comparison the achievable suppressive effects of the PDT treatments against the vascular restenosis, the above test procedures were conducted with employing two different types of the laser-irradiating devices comprising the optical fiber for the irradiation of laser, a first one type of which two different devices was such a laser-irradiating device that comprised an optical fiber as integrated with a balloon catheter and that is shown in Figure 1 of the appended drawing. The other type of the laser-irradiating device employed was comprising simply the conventional type of cylindrical optical fiber. In the tests, either one of these two different types of the laser-irradiating devices containing an optical fiber was inserted into the abdominal aorta under test. Under roentgenoscopy, an X-ray-shielding marker which had been provided in the laser-irradiating optical fiber so inserted was observed as a guide. This guide was used so that the position of the optical fiber device as inserted could be adjusted so as to be located in a position optimal to make the laser to irradiate selectively just the balloon-injured site of the abdominal aorta under test. Then, the irradiation of the laser through said optical fiber was carried out at a laser fluence of 50 or 100 J/cm^2 by means of a semiconductor generator for generating the laser of a wavelength of 664 nm. […] From the photographies of showing the traverse cross-section of histopathologically stained test specimens as collected from the above PDT-treated site of the blood vessel, the area of the tunica media and the area of the neo-intima of the test specimens of the blood vessel under test were measured by an image analyzer. The ratio of the area of the tunica media to the area of the neo-intima of the blood vessel specimens was calculated. […]

[2] = test system: balloon-injured site of the abdominal aorta blood vessel; assay: PDT treatment in rabbit model with arterial injury (balloon catheter), pathological study (Example 1); format: in vivo; settings: 2.5 mg/kg i.v., laser 664 nm, 50 or 100 J/cm^2, optical fiber in inflated 2F balloon catheter
Method: Mono-L-aspartylchlorin e6 tetrasodium salt (NPe6) was intravenously administered at a dose of 2.5 mg/kg to a rabbit weighing about 4 kg. A commercially available 2F balloon catheter was immediately then inserted through the femoral artery into the abdominal aorta of rabbit. Thereafter, there are repeated operations of drawing out from the blood vessel the balloon catheter with the inflated balloon, inserting the balloon catheter again into the blood vessel, and drawing out the balloon catheter with the inflated balloon, whereby a rabbit model with an arterial injury was produced. This method for producing the rabbit model having the arterial injury at the blood vessel inner wall was in accordance with the method of Hsiang et al. (see Ann. Vasc. Surg., Vol.9, p.80-86, 1995). At the end of 3 hours after the administration of NPe6, an optical fiber for irradiation of laser (made of an acrylic polymer filament having an external diameter of 0.5 mm and provided with the emitter part of 15mm in length) was inserted into the hollow hole of the 2F balloon catheter which had been inserted in and kept remained at the balloon-injured site of the abdominal aorta blood vessel. The balloon of the catheter was then inflated. Laser light of 664 nm wavelength was passed into and transmitted through the optical fiber to make the laser light to irradiate the abdominal artery at the balloon-injured site, and thereby to carry out the PDT treatment of said site at a laser fluence of 50 or 100 J/cm^2. The laser (of the wavelength of 664 nm) used was emitted from a laser-generating source of semi-conductor type known for PDT. At the respective ends of four days, two weeks and four weeks after the above PDT treatment so made, the site having received the PDT treatment was pathologically studied.

[3] = conventional type of cylindrical optical fiber device, 100 J/cm^2
[4] = optical fiber device integrated with the balloon catheter, 50 J/cm^2

## C=Cc1c(C)c2cc3nc(c(CC(=O)N[C@@H](CC(=O)[O-])C(=O)[O-])c4[nH]c(cc5nc(cc1[nH]2)C(C)=C5CC)c(C)c4C(=O)[O-])[C@@H](CCC(=O)[O-])[C@@H]3C.[Na+].[Na+].[Na+].[Na+] [NPe6, Mono-L-aspartylchlorin e6 tetrasodium salt]
[1]; [3]
  Ratio of area of neointima to area of tunica media in blood vessel: 0.87±0.37
  Inhibition rate (%): 28.7%
[1]; [4]
  Ratio of area of neointima to area of tunica media in blood vessel: 0.68±0.21
  Inhibition rate (%): 44.3%
[2]; 2 and 4 weeks after PDT
  injuries in the regions of the blood vessel participating in the entire construction of the blood vessel (pathological findings): no injuries were developed
  intimal thickening as produced by the vascular neo-intima formed at the PDT-treated site (pathological findings): inhibited
[2]; four days after PDT
  cells of the tunica media of the blood vessel at the PDT-treated site (pathological findings): destroyed in a broad region of ranging from the inner wall side towards the outer wall side of the blood vessel

— patent publication EP1166784B1, “INHIBITION OF VASCULAR RESTENOSIS AFTER ANGIOPLASTY” (Meiji Seika Kaisha, Ltd., priority 1999, dated 2000)
